Test results published in US20230382889A1 (Volastra Therapeutics, Inc., priority 2022, published 2023).

Tests used:
JIMT-1 cells = test: Cell viability of KIF18a-sensitive cell lines, JIMT-1 (Cell Titre-Glo, 7 days); assay type: cell-based; settings: Homo sapiens, 168 h; JIMT-1, 7 days; read-out: JIMT-1 IC50
Method: (§1) Cell lines were seeded as follows 24 hours before compound treatment: HCC15 (Korean Cell Line Bank) 600 cell/well, 95 μL of RPMI-1640 media supplemented with 100 units/mL penicillin, 100 units/mL streptomycin and 10% FBS; NIH:OVCAR-3 (ATCC), 1000 cell/well, 95 μL of RPMI-1640 media supplemented with 100 units/mL penicillin, 100 units/mL streptomycin, 0.01 mg/mL bovine insulin, and 20% FBS; JIMT-1 (Addexbio) 1000 cell/well, 95 μL of DMEM media supplemented with 100 units/mL penicillin, 100 units/mL streptomycin, and 10% FBS.
(§2) Test compounds were added to cells in a 20× dilution scheme by adding 5 μL of serially diluted compound to the plate, and the treated cells were incubated for an additional 7 days in a 37° C., 5% CO2 incubator. DMSO was used as the negative control (0% effect), and wells omitting cells were used as the positive control (100% effect). The cells were incubated for seven days, and cell viability determined via the Promega Cell Titre-Glo® Assay kit. Luminescence units were converted to ATP concentrations via an ATP standard curve (10 point, 2-fold dilution from 5 uM). % Inhibition was calculated for each well as: ([max−min]−[test−min])/[max−min]. IC50 values were calculated from concentration vs. % Inhibition data via a four-parameter variable slope model.

HCC15 cells = test: Cell viability of KIF18a-sensitive cell lines, HCC15 (Cell Titre-Glo, 7 days); assay type: cell-based; settings: 168 h; HCC15, 7 days; read-out: HCC15 IC50
Method: as §1, §2

hKIF18A (1-374) = hKIF18A (1-374) (Homo sapiens (Human), UniProt Q8NI77); test: Inhibition of KIF18A microtubule-dependent ATPase activity (ADP-Glo); assay type: biochemical; settings: 4 nM hKIF18A (1-374)
Sequence of hKIF18A (1-374) (Q8NI77 1-374): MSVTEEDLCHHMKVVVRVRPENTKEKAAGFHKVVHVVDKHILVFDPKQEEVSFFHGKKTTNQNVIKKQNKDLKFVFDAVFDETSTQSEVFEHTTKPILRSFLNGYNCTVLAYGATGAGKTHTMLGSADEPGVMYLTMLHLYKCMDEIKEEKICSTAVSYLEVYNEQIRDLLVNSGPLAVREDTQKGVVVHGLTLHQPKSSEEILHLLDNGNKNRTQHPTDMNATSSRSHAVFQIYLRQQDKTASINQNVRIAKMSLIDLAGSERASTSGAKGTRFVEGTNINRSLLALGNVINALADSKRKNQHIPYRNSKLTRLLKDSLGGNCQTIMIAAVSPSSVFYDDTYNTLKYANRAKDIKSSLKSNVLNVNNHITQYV
How it was run: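 Reaction was started with pre-formed microtubules and ATP (0.2 mg/mL and 2.0 mM in the added mix) and run 60 min at 28 °C. ADP was read by ADP-Glo luminescence, and IC50 came from a four-parameter fit of % inhibition.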

NIH:OVCAR-3 cells = test: Cell viability of KIF18a-sensitive cell lines, NIH:OVCAR-3 (Cell Titre-Glo, 7 days); assay type: cell-based; settings: Homo sapiens, OVCAR-3, 168 h; NIH:OVCAR3, 7 days; read-out: NIH:OVCAR3 IC50
Method: as §1, §2

Compound | IC50 (JIMT-1 cells) [µM] | IC50 (HCC15 cells) [µM] | IC50 (hKIF18A (1-374)) [µM] | IC50 (NIH:OVCAR-3 cells) [µM]
CCS(=O)(=O)Nc1ccc(-n2cc(-c3cccc(N4CC(F)(F)C4)n3)nn2)c(N2CCC3(CC2)CC3)c1 [Compound 61, N-(4-(4-(6-(3,3-difluoroazetidin-1-yl)pyridin-2-yl)-1H-1,2,3-triazol-1-yl)-3-(6-azaspiro[2.5]octan-6-yl)phenyl)ethanesulfonamide] | 0.015 | 0.015 | 0.008 | 0.016
O=S(=O)(Nc1ccc(-n2cc(-c3cccc(N4CCC(F)(F)CC4)n3)nn2)c(N2CCC3(CC2)CC3)c1)C1(CO)CC1 [Compound 62, N-(4-(4-(6-(4,4-difluoropiperidin-1-yl)pyridin-2-yl)-1H-1,2,3-triazol-1-yl)-3-(6-azaspiro[2.5]octan-6-yl)phenyl)-1-(hydroxymethyl)cyclopropane-1-sulfonamide] | 0.0095 | 0.013 | 0.018 | 0.013
CS(=O)(=O)Nc1ccc(-c2cn(-c3cccc(N4CCC(F)(F)CC4)c3)nn2)c(N2CCC3(CC2)CC3)c1 [Compound 64, N-(4-(1-(3-(4,4-difluoropiperidin-1-yl)phenyl)-1H-1,2,3-triazol-4-yl)-3-(6-azaspiro[2.5]octan-6-yl)phenyl)methanesulfonamide] | 0.12 | 0.12 | 0.025 | 0.12
O=S(=O)(CCO)Nc1ccc(-c2cn(-c3cccc(N4CCC(F)(F)CC4)n3)nn2)c(N2CCC3(CC2)CC3)c1 [Compound 71, N-(4-(1-(6-(4,4-difluoropiperidin-1-yl)pyridin-2-yl)-1H-1,2,3-triazol-4-yl)-3-(6-azaspiro[2.5]octan-6-yl)phenyl)-2-hydroxyethane-1-sulfonamide] | 0.02 | 0.012 | 0.01 | 0.013
Cc1cc(-c2cn(-c3ccc(NS(=O)(=O)CCO)cc3N3CCC4(CC3)CC4)nn2)nc(N2CC3C(C2)C3(F)F)n1 (stereo not shown) [Compound 73, N-(4-(4-(2-(6,6-difluoro-3-azabicyclo[3.1.0]hexan-3-yl)-6-methylpyrimidin-4-yl)-1H-1,2,3-triazol-1-yl)-3-(6-azaspiro[2.5]octan-6-yl)phenyl)-2-hydroxyethane-1-sulfonamide] | 0.042 | 0.01 | 0.011 | 0.014
O=S(=O)(CCO)Nc1ccc(-n2cc(-c3ccc(F)c(N4CCC(F)(F)CC4)n3)nn2)c(N2CCC3(CC2)CC3)c1 [Compound 79, N-(4-(4-(6-(4,4-difluoropiperidin-1-yl)-5-fluoropyridin-2-yl)-1H-1,2,3-triazol-1-yl)-3-(6-azaspiro[2.5]octan-6-yl)phenyl)-2-hydroxyethane-1-sulfonamide] | 0.0078 | 0.0054 | 0.015 | 0.0083
Cc1cc(-n2cc(-c3ccc(NS(=O)(=O)CCO)cc3N3CCC4(CC3)CC4)nn2)nc(N2CCC(F)(F)CC2)n1 [Compound 87, N-(4-(1-(2-(4,4-difluoropiperidin-1-yl)-6-methylpyrimidin-4-yl)-1H-1,2,3-triazol-4-yl)-3-(6-azaspiro[2.5]octan-6-yl)phenyl)-2-hydroxyethane-1-sulfonamide] | 0.09 | 0.043 | 0.027 | 0.049
Cc1cc(-c2cn(-c3ccc(NS(=O)(=O)CCO)cc3N3CCC(C)CC3)nn2)nc(N2CCC(F)(F)CC2)n1 [Compound 89, N-(4-(4-(2-(4,4-difluoropiperidin-1-yl)-6-methylpyrimidin-4-yl)-1H-1,2,3-triazol-1-yl)-3-(4-methylpiperidin-1-yl)phenyl)-2-hydroxyethane-1-sulfonamide] | 0.048 | 0.034 | 0.021 | 0.051
Cc1cc(-c2cn(-c3ccc(NS(=O)(=O)C4(CO)CC4)cc3N3CCCCC3)nn2)nc(N2CCC(F)(F)CC2)n1 [Compound 91, N-(4-(4-(2-(4,4-difluoropiperidin-1-yl)-6-methylpyrimidin-4-yl)-1H-1,2,3-triazol-1-yl)-3-(piperidin-1-yl)phenyl)-1-(hydroxymethyl)cyclopropane-1-sulfonamide] | 0.035 | 0.029 | 0.036 | 0.04
Cc1cc(N2CCC(F)(F)CC2)nc(-n2cc(-c3ccc(NS(=O)(=O)CCO)cc3N3CCC4(CC3)CC4)nn2)c1 [Compound 95, N-(4-(1-(6-(4,4-difluoropiperidin-1-yl)-4-methylpyridin-2-yl)-1H-1,2,3-triazol-4-yl)-3-(6-azaspiro[2.5]octan-6-yl)phenyl)-2-hydroxyethane-1-sulfonamide] | 0.068 | 0.037 | 0.038 | 0.051
O=S(=O)(CCO)Nc1ccc(-c2cn(-c3cncc(N4CCC(F)(F)CC4)n3)nn2)c(N2CCC3(CC2)CC3)c1 [Compound 96, N-(4-(1-(6-(4,4-difluoropiperidin-1-yl)pyrazin-2-yl)-1H-1,2,3-triazol-4-yl)-3-(6-azaspiro[2.5]octan-6-yl)phenyl)-2-hydroxyethane-1-sulfonamide] | 0.044 | 0.017 | 0.0044 | 0.028
Cc1cc(-n2cc(-c3ccc(NS(=O)(=O)CCO)cc3N3CCC4(CC3)CC4)nn2)nc(N2CC3C(C2)C3(F)F)n1 (stereo not shown) [Compound 97, N-(4-(1-(2-(6,6-difluoro-3-azabicyclo[3.1.0]hexan-3-yl)-6-methylpyrimidin-4-yl)-1H-1,2,3-triazol-4-yl)-3-(6-azaspiro[2.5]octan-6-yl)phenyl)-2-hydroxyethane-1-sulfonamide] | 0.11 | 0.037 | 0.036 | 0.072
O=S(=O)(CCO)Nc1ccc(-n2cc(-c3cccc(OC4CCCC4)n3)nn2)c(N2CCC3(CC2)CC3)c1 [Compound 100, N-(4-(4-(6-(cyclopentyloxy)pyridin-2-yl)-1H-1,2,3-triazol-1-yl)-3-(6-azaspiro[2.5]octan-6-yl)phenyl)-2-hydroxyethane-1-sulfonamide] | 0.06 | 0.045 | 0.011 | 0.08
Cc1cc(-c2cn(-c3ccc(NS(=O)(=O)CCO)cc3N3CCC4(CC3)CC4)nn2)nc(N2CCCCC2)n1 [Compound 101, 2-hydroxy-N-(4-(4-(6-methyl-2-(piperidin-1-yl)pyrimidin-4-yl)-1H-1,2,3-triazol-1-yl)-3-(6-azaspiro[2.5]octan-6-yl)phenyl)ethane-1-sulfonamide] | 0.027 | 0.016 | 0.017 | 0.027
CCS(=O)(=O)Nc1ccc(-n2cc(-c3cc(C)nc(N4CCC(F)(F)CC4)n3)nn2)c(N2CCC3(CC2)CC3)c1 [Compound 106, N-(4-(4-(2-(4,4-difluoropiperidin-1-yl)-6-methylpyrimidin-4-yl)-1H-1,2,3-triazol-1-yl)-3-(6-azaspiro[2.5]octan-6-yl)phenyl)ethanesulfonamide] | 0.024 | 0.018 | 0.032 | 0.025
CCS(=O)(=O)Nc1ccc(-c2cn(-c3cccc(S(=O)(=O)NC(C)(C)C)c3)nn2)c(N2CCC3(CC2)CC3)c1 [Compound 110, N-(tert-butyl)-3-(4-(4-(ethylsulfonamido)-2-(6-azaspiro[2.5]octan-6-yl)phenyl)-1H-1,2,3-triazol-1-yl)benzenesulfonamide] | 0.0068 | 0.0033 | 0.015 | 0.0044
